Measured values published in paper PMC10461224, “Development of an Affinity-Based Probe to Profile Endogenous Human Adenosine A3 Receptor Expression” (Journal of Medicinal Chemistry, 2023).

Tests used:
human A2AAR (hA2AAR) = biological target: T1, human A2AAR (hA2AAR) (Homo sapiens, UniProt P29274); assay: Single-point radioligand displacement, [3H]ZM241385; type: binding; conditions: 1 μM probe; HEK293 cell membranes; co-incubated with radioligand 30 min at 25 °C; mean of two experiments
T1 construct: expressed in transfected cells; host or cells: HEK293 cells (HEKhA2AAR), gift of Dr. J. Wang, Biogen; membrane fractions
T1 sequence (P29274 whole entry): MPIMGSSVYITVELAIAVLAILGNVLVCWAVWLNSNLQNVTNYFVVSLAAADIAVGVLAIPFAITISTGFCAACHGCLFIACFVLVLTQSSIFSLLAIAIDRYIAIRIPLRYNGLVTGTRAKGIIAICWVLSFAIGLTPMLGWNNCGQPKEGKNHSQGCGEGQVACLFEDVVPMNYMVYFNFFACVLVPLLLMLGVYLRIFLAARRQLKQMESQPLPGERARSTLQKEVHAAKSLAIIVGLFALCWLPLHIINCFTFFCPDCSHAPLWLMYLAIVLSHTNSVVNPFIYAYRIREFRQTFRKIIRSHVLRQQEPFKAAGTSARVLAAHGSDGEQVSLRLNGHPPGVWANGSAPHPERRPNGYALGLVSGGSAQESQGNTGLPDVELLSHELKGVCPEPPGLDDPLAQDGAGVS
Method: Membrane aliquots containing 15 μg (CHOhA3AR), 5 μg (CHOhA1AR), or 30 μg (HEK293hA2AAR and CHO-spap-A2BAR) of protein were resuspended in assay buffer (A3AR: 50 mM Tris–HCl, pH 8.0, 10 mM MgCl2, 1 mM EDTA, 0.01% CHAPS; A1AR and A2AAR: 50 mM Tris–HCl, pH 7.4; A2BAR: 50 mM Tris–HCl, pH 7.4, 0.1% CHAPS). […] Nonspecific binding was determined in the presence of 100 μM NECA (A3AR), 100 μM CPA (A1AR), 100 μM NECA (A2AAR), and 10 μM ZM241385 (A2BAR). Incubations were terminated by rapid vacuum filtration to separate the bound and free radioligand through prewetted 96-well GF/C filter plates using a PerkinElmer Filtermate harvester. Filters were subsequently washed 12 times with ice-cold wash buffer (A3AR: 50 mM Tris–HCl, pH 8.0, 10 mM MgCl2, 1 mM EDTA; A1AR and A2AAR: 50 mM Tris–HCl, pH 7.4; A2BAR: 50 mM Tris–HCl, pH 7.4, 0.1% BSA). The plates were dried at 55 °C, and MicroscintTM-20 cocktail (PerkinElmer) was added subsequently.
Single point displacement values shown are mean percentages of two individual experiments performed in duplicate. All pKi values shown are mean values ± SEM of three individual experiments performed in duplicate.

hA1AR = biological target: T2, hA1AR (Homo sapiens, UniProt P30542); assay: Full curve displacement assays on the hA1AR; type: binding; conditions: from full curve displacement assays (Table S1)
T2 construct: expressed in transfected cells; host or cells: CHO cells (CHOhA1AR), gift of Prof; S.J. Hill, University of Nottingham; membrane fractions
T2 sequence (P30542 1-326): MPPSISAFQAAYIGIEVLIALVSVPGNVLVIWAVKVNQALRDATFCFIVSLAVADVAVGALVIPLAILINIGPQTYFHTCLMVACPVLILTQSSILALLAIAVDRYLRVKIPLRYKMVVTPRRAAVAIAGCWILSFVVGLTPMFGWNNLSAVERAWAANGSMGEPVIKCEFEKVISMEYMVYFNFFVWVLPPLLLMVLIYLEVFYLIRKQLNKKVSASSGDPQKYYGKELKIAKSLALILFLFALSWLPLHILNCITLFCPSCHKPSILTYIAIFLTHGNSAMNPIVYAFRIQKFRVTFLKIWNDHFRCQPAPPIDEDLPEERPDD
Method: The affinity of the synthesized AfBPs was determined in radioligand binding experiments. First, single concentration displacement assays were carried out on all four human adenosine receptors, using a final probe concentration of 1 μM (Table 1). […] This quick screen indicated a good selectivity toward the hA3AR over the other human ARs, a trend that was also observed in the case of the parent compound.[34] Next, the ‘apparent’ affinities (depicted as pKi values) toward the hA3AR were determined using full curve displacement assays. To study the presumable covalent mode of action, the apparent affinity was determined with (pre-4 h) and without (pre-0 h) 4 h of pre-incubation of AfBP with hA3AR, prior to addition of radioligand. […] This difference in affinity was reflected in a shift in apparent pKi. […] To further investigate selectivity toward the hA3AR over the hA1AR, full curve displacement assays were carried out on the hA1AR.
[…]. Single point displacement values shown are mean percentages of two individual experiments performed in duplicate. All pKi values shown are mean values ± SEM of three individual experiments performed in duplicate. Statistical analysis was performed using a one-way ANOVA test with multiple comparisons (****p < 0.0001).

hA3AR = biological target: T3, hA3AR (Homo sapiens, UniProt P0DMS8); assay: Wash-out assay, [3H]PSB-11 binding after washing; conditions: 1 μM compound, pre-incubated 2 h at 25 °C, washed 4 times
T3 construct: expressed in transfected cells; host or cells: CHO cells (CHOhA3AR), gift of Prof; K.N. Klotz, University of Würzburg; used as membrane fractions or live cells
T3 sequence (P0DMS8 1-318): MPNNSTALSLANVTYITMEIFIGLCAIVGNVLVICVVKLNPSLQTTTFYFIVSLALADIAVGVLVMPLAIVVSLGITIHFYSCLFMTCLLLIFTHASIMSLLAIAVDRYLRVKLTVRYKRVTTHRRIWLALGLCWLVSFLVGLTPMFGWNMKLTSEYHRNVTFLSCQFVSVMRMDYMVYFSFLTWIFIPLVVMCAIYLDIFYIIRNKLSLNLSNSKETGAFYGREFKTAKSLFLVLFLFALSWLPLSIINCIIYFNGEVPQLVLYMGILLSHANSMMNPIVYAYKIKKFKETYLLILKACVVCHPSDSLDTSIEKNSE
Method: 200 μL assay buffer (50 mM Tris–HCl, pH 8.0, 10 mM MgCl2, 1 mM EDTA and 0.01% CHAPS), 100 μL assay buffer containing the competing ligand (final concentration: 1 μM), and 100 μL of CHOhA3AR membrane fractions (100 μg protein) were combined and pre-incubated for 2 h at 25 °C while shaking. The ‘4× washed’ samples were centrifuged (5 min, 13,000 rpm, 4 °C), and the supernatant was removed. The resulting pellet was dissolved in 1 mL of assay buffer and incubated for 10 min at 25 °C while shaking. The ‘4× washed’ samples were then again centrifuged (2 min, 13,000 rpm, 4 °C), the supernatant was removed, and the resulting pellet was dissolved in 1 mL of assay buffer. The latter washing steps were repeated two times (four times washing total), and the final pellet was dissolved in 300 μL assay buffer. The radioligand (10 nM [^3H]PSB-11) in 100 μL of assay buffer was added to all samples, and the samples were incubated at 25 °C for 1 h. Nonspecific binding was determined in the presence of 100 μM NECA. Incubations were terminated by addition of 1 mL of ice-cold washing buffer (50 mM Tris–HCl, pH 8.0, 10 mM MgCl2, 1 mM EDTA) and rapid vacuum filtration through prewetted 96-well GF/B filter plates using a Brandel harvester. Filters were subsequently washed 5 times with ice-cold wash buffer. The plates were dried under vacuum, and a MicroscintTM-20 cocktail (PerkinElmer) was added subsequently. After 3 h, the filter-bound radioactivity was determined using a 2450 MicroBeta Microplate Counter (PerkinElmer).

Structure (SMILES) | % specific [3H]ZM241385 displacement, hA2AAR (human A2AAR (hA2AAR)) [%] | selectivity toward the hA3AR over the hA1AR (hA1AR) [fold] | binding to hA3AR after wash-out ([3H]PSB-11 binding recovery) (hA3AR)
C#CCOc1ccn2c(c1)nc1c2c(=O)n(CCC)c(=O)n1CCCNC(=O)c1ccc(S(=O)(=O)F)cc1 [compound 9, 4-((3-(2,4-Dioxo-8-(prop-2-yn-1-yloxy)-3-propyl-3,4-dihydropyrido[2,1-f]purin-1(2H)-yl)propyl)carbamoyl)benzenesulfonyl fluoride] | 7 | > 17 | persistent binding
C#CCN(CCCn1c(=O)n(CCC)c(=O)c2c1nc1cc(OC)ccn12)C(=O)c1ccc(S(=O)(=O)F)cc1 [compound 5, 4-((3-(8-Methoxy-2,4-dioxo-3-propyl-3,4-dihydropyrido[2,1-f]purin-1(2H)-yl)propyl)(prop-2-yn-1-yl)carbamoyl)benzenesulfonyl fluoride] | 0 | > 100 | persistent binding
